Assays:
GUCY2C R792S mutant = biological target: T1, GUCY2C R792S mutant (Homo sapiens, UniProt P25092, R792S); assay: Th Ser40 phosphorylation in HEK cells co-transfected with Th and GUCY2C R792S gain-of-function mutant versus wt; format: cell-based; details: HEK co-transfected with Th and wt or R792S GUCY2C, guanylin treatment
T1 construct: expressed in transfected cells; host or cells: HEK cells, co-transfected with Th
Protocol: FIG. 5. […] (A) HEK cultures were treated with guanylin, in the presence or absence of IBMX. […] Unpaired Student's t-test (p-values: ****<0.0001, **<0.01, *<0.05). (B) HEK cells were co-transfected with Th and either the wt GUCY2C or a gain-of-function mutant (R792S). Ser40 phosphorylation was studied following guanylin treatment (G). […] Unpaired Student's t-test (p-values: ***<0.001, **<0.01).
HEK cells were transfected using the calcium-phosphate method. 12-well plates were refreshed with 500 μL of growth medium before transfection. […] The plasmid mixture was taken into a final concentration of 250 mM CaCl2 in a total volume of 110 μL. A complementary tube was filled with 110 μL of HEPES-buffered saline 2X (HEBS 2X: 1.5 mM Na2HPO4, 50 mM HEPES pH 7.05, 280 mM NaCl). The tube with CaCl2 was pipetted drop-wise into the HEBS and mixed gently. After 60 seconds of incubation, 55 µL of the final mixture was added to each well. […]
Up to 35 μL of sample was loaded in each slot and run in the presence of tris-glycine buffer and 0.1% SDS. […] After additional washings during 1 hour, blots were exposed to an enhanced chemiluminescence solution and the signal was detected using an Odyssey imager (LI-COR). […] For graph quantifications, ‘Fold Change’ represents the ratio P-Ser40/Total Th. Statistical comparisons between pair of groups correspond to unpaired Student's t-tests, as calculated with GraphPad Prism. […]

[1] = tested on: Ser40 phosphorylation of Th in MN9D cells; assay: Th Ser40 phosphorylation in MN9D cells (western blot, P-Ser40/total Th); format: cell-based
Protocol: FIG. 6. PDE2a is an important effector regulating Ser40 phosphorylation in MN9D cells. MN9D cultures were treated with IBMX or BAY-60-7550 (50 μM), a PDE2A-selective inhibitor. Cells were analyzed on western-blot for phosphorylation of Ser40 , total Th, and actin.
FIG. 7. PDE2a is an important effector regulating Ser40 phosphorylation in MN9D cells. BAY-60-7550 dose-curve and representative examples in MN9D (n=9, red) and HEK cells (n=4, blue) (Mean±SEM). Cells were treated with various concentrations of BAY 60-7750 and analyzed for Th phosphorylation on Ser40 , total Th and actin.
FIG. 10. PDE11 is an important effector regulating Ser40 phosphorylation in MN9D cells. BC 11-38 dose-curve and representative examples in MN9D (n=2) (Mean±SEM). IBMX served as a control and was used at 100 μM. Cell were analyzed for phosphorylation of Th on Ser40 and total Th was used as a loading control to determine phosphorylation specific effects.
24 hours prior to the administration of the different compounds, cells were serum-starved with DMEM medium supplemented with L-glutamine and Pen&Strep. Unless otherwise stated, the concentration of the different reagents is reported in Table 1 and the duration of the treatment was 1 hour.
Cells were harvested in 150 μL of Laemmli sample buffer (2% SDS, 10% glycerol, 60 mM Tris-Cl pH 6.8, 0.01% bromophenol blue, 50 mM freshly added DTT). Wells were duplicated in pairs and pooled into the same tubes to minimize variability. Samples were sonicated at maximum potency during 3 minutes, heated at 95° C. for 5 minutes and spun down briefly before loading. Running gels were 10% polyacrylamide except for the GUCY2C detection, which was optimal in 7% gels (375 mM Tris-Cl pH 8.8, 0.1% APS, 0.1% SDS, 0.04% TEMED). Stacking gels were 5% polyacrylamide (125 mM Tris-Cl pH 6.8, 0.1% APS, 0.1% SDS, 0.04% TEMED).
Up to 35 μL of sample was loaded in each slot and run in the presence of tris-glycine buffer and 0.1% SDS. Running conditions were 100 V during the first 20 minutes, followed by 160 V until the migration front reached the bottom of the gel. The transference was performed at 100 V onto 0.2 μm nitrocellulose membranes, in the presence of tris-glycine buffer and 20% methanol. The blotting duration was 140 minutes except for the detection of GUCY2C, which was transferred during 240 minutes in the presence of 0.1% SDS. Membranes were then submerged in Ponceau S solution to check blotting efficiency (0.1% Ponceau S, 5% acetic acid). After several washings with DEMI water, blots were incubated during 1 hour in the presence of 5% milk powder and TBS-T (154 mM NaCl, 49.5 mM Tris-Cl pH 7.4, 0.1% Tween-20). The incubation with the primary antibodies was performed O/N at 4° C. in TBS-T (consult Table 2 for dilution and species). Membranes were rinsed in TBS-T during 1 hour to remove the excess antibody. The incubation with the secondary antibodies took place during 60 minutes at room temperature (1:10,000 dilution in TBS-T, with the exception of the goat secondary which was diluted 1:20,000). Secondary antibodies were fused to the horseradish peroxidase and raised against the host species of the primary antibody. After additional washings during 1 hour, blots were exposed to an enhanced chemiluminescence solution and the signal was detected using an Odyssey imager (LI-COR). Band densitometry was performed with LI-COR Image Studio Lite. For graph quantifications, ‘Fold Change’ represents the ratio P-Ser40/Total Th. Statistical comparisons between pair of groups correspond to unpaired Student's t-tests, as calculated with GraphPad Prism. Asterisks denote the following p-values: *<0.05, **<0.01, ***<0.001, ****<0.0001.
IBMX is a non-selective PDE inhibitor, therefore we investigated the effect of inhibiting a specific PDE selectively on Ser40 phosphorylation. To study the effect of PDE2A inhibition on Ser40 phosphorylation we treated the dopaminergic cell-line MN9D with Bay BAY-60-7550 and analyzed the effects. […]

T1 sequence (P25092 24-1073 R792S): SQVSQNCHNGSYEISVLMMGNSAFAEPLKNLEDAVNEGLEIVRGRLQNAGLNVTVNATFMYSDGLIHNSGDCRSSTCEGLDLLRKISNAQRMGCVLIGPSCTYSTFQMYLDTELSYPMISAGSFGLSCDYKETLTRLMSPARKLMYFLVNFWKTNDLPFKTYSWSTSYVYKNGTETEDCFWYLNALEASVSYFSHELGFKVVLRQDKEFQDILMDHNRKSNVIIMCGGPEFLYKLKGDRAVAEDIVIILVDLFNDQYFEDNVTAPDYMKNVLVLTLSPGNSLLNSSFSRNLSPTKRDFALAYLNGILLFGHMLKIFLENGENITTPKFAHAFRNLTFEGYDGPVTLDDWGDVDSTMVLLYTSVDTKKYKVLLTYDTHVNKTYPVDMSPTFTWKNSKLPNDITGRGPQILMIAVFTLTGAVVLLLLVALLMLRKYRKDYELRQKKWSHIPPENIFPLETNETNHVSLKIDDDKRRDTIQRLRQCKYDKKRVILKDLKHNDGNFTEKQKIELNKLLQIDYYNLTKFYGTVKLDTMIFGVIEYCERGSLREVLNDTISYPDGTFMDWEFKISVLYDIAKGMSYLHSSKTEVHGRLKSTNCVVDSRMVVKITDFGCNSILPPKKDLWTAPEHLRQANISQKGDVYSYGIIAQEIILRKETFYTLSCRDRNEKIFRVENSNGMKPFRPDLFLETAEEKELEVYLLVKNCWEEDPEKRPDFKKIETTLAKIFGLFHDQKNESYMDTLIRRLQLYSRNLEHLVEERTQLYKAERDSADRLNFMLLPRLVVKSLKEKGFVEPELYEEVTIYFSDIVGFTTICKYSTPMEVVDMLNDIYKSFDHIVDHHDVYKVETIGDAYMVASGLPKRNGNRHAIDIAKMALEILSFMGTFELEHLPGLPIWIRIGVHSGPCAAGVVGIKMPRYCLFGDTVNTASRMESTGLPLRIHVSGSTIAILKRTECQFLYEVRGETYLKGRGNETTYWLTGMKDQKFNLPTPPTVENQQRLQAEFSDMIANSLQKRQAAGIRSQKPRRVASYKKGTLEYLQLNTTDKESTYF

Molecule	boost in Ser40 phosphorylation with R792S mutant compared to the wt receptor (GUCY2C R792S mutant)	increase in the phosphorylation of Ser40 ([1]; 50 μM)	performance versus IBMX on Ser40 phosphorylation ([1]; IBMX 100 μM as control)	phosphorylation of Th on Ser40 as compared to total Th (in words) ([1]; dose-curve)	IC50 ([1]; n=9, read-out: IC50 in the dopaminergic model (dose-curve of Th Ser40 phosphorylation))
guanylin: natural agonistic ligand of GUCY2C, 15 amino acid polypeptide; commercially available rat/mouse guanylin (Chemcruz) (PNTCEICAYAACTGC) [reference compound]	1.5 fold	–	–	–	–
COc1ccc(Cc2nn3c([C@@H](CCCc4ccccc4)[C@@H](C)O)nc(C)c3c(=O)[nH]2)cc1OC [BAY 60-7550]	–	more than 4 fold	performed better than IBMX	clear fold change increase in Ser40 phosphorylation	1 µM

Reference: patent publication US20210330736A1 (UNIVERSITEIT VAN AMSTERDAM, priority 2018, published 2021)
